Test results from patent US20100092526A1, “NANOEMULSION THERAPEUTIC COMPOSITIONS AND METHODS OF USING THE SAME” (NanoBio Corporation, priority 2008, published 2010).
Where two headings read alike, the source gives them in different places.

Tests used:
[1] = test system: Pseudomonas aeruginosa; assay: MIC/MBC against CF isolates (CLSI, alamar blue); settings: Pseudomonas aeruginosa
[2] = test system: Stenotrophomonas maltophilia; assay: MIC/MBC of nanoemulsions against gram-negative isolates (CLSI, alamar blue); format: cell-based; settings: Stenotrophomonas maltophilia (n = 5)
[3] = test system: Acinetobacter baumannii; assay: as above; format: cell-based; settings: Acinetobacter baumannii (n = 5)
[4] = test system: Klebsiella pneumoniae; assay: as above; format: cell-based; settings: Klebsiella pneumoniae (n = 5)
[5] = test system: Pseudomonas aeruginosa; assay: as above; format: cell-based; settings: Pseudomonas aeruginosa (n = 5)
[6] = test system: Burkholderia cenocepacia; assay: MIC/MBC against CF isolates (CLSI, alamar blue); settings: Burkholderia cenocepacia
[7] = nanoemulsions in the presence of 5 mM EDTA
[8] = nanoemulsions in the presence of 5 mM EDTA, in µg/mL

C[C@H]1COc2c(N3CCN(C)CC3)c(F)cc3c(=O)c(C(=O)O)cn1c23 [Levofloxacin]
> 16 µg/mL: MBC ([1]; CF Pseudomonas isolate NB14) | MBC ([6]; CF Burkholderia isolate NB23)
0.06-8: MIC Range [4, 8]
0.25-4: MIC Range [5, 8]
4 µg/mL: MBC ([1]; CF Pseudomonas isolate NB15) | MIC ([1]; CF Pseudomonas isolate NB18) | MBC ([1]; CF Pseudomonas isolate NB19) | MBC ([6]; CF Burkholderia isolate NB22)
0.5 µg/mL: MIC50 [1] | MIC ([1]; CF Pseudomonas isolate NB1) | MBC ([1]; CF Pseudomonas isolate NB2) | MIC ([1]; CF Pseudomonas isolate NB2) | MBC ([1]; CF Pseudomonas isolate NB3) | MBC ([1]; CF Pseudomonas isolate NB4) | MIC ([1]; CF Pseudomonas isolate NB5) | MIC ([1]; CF Pseudomonas isolate NB6) | MIC ([1]; CF Pseudomonas isolate NB7) | MBC ([1]; CF Pseudomonas isolate NB8) | MIC ([1]; CF Pseudomonas isolate NB8) | MBC ([1]; CF Pseudomonas isolate NB9) | MIC ([1]; CF Pseudomonas isolate NB9) | MBC ([1]; CF Pseudomonas isolate NB10) | MIC ([1]; CF Pseudomonas isolate NB10) | MIC ([1]; CF Pseudomonas isolate NB13) | MIC ([1]; CF Pseudomonas isolate NB20) | MIC50 [2, 7]
2 µg/mL: MBC ([1]; CF Pseudomonas isolate NB13) | MIC ([1]; CF Pseudomonas isolate NB15) | MIC ([1]; CF Pseudomonas isolate NB16) | MIC ([1]; CF Pseudomonas isolate NB19) | MBC ([6]; CF Burkholderia isolate NB21) | MIC ([6]; CF Burkholderia isolate NB21)
0.06 µg/mL: MIC50 [4, 7]
20.0%: % resistant [2] | % resistant [3] | % resistant [4]
0.5-8: MIC Range [2, 8]
0.25 µg/mL: MIC ([1]; CF Pseudomonas isolate NB3) | MIC ([1]; CF Pseudomonas isolate NB4) | MIC ([1]; CF Pseudomonas isolate NB12) | MIC50 [3, 7]
0.0%: % resistant [5]
1 µg/mL: MBC ([1]; CF Pseudomonas isolate NB1) | MBC ([1]; CF Pseudomonas isolate NB5) | MBC ([1]; CF Pseudomonas isolate NB6) | MBC ([1]; CF Pseudomonas isolate NB7) | MBC ([1]; CF Pseudomonas isolate NB12) | MBC ([1]; CF Pseudomonas isolate NB20) | MBC ([1]; read-out: MBC 50, 20 CF Pseudomonas isolates) | MBC ([1]; read-out: MBC 50, second MBC 50 line of the summary, Stenotrophomonas, values equal those of the CF Pseudomonas isolates) | MIC50 [5, 7] | MIC ([6]; CF Burkholderia isolate NB22)
16 µg/mL: MBC ([1]; CF Pseudomonas isolate NB11) | MIC ([1]; CF Pseudomonas isolate NB14) | MBC ([1]; CF Pseudomonas isolate NB17) | MIC ([1]; CF Pseudomonas isolate NB17) | MBC ([1]; read-out: MBC 90, 20 CF Pseudomonas isolates) | MBC ([1]; read-out: MBC 90, second MBC 90 line of the summary, Stenotrophomonas, values equal those of the CF Pseudomonas isolates) | MBC ([6]; CF Burkholderia isolate NB24)
80.0%: % susceptible [3] | % susceptible [4] | % susceptible [5]
60.0%: % susceptible [2]
8 µg/mL: MIC90 [1] | MIC ([1]; CF Pseudomonas isolate NB11) | MBC ([1]; CF Pseudomonas isolate NB16) | MBC ([1]; CF Pseudomonas isolate NB18) | MIC ([6]; CF Burkholderia isolate NB23) | MIC ([6]; CF Burkholderia isolate NB24) | MBC ([6]; CF Burkholderia isolate NB25)
